# Entries after “also recorded” stand apart in the source; their conditions may differ. Read-outs that look alike come from different tables or passages of the source.
# Key:
# [1] = system: neurons from hippocampi of E18 rat embryos; assay: Neurite growth length (% NTL) in cultured E18 rat hippocampal neurons, 9-point dose response, 48 hours; format: cell-based
# Summary of the method: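 Dissociated E18 rat hippocampal neurons at 1500 cells/well on PDL were exposed 48 h to 9 concentrations from 20 μM down to 0.078125 μM. After PFA fixation and βIII-tubulin/Hoechst staining, ArrayScan imaging traced neurites in at least 200–300 neurons per condition to give % NTL.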
# Primary Neurons = assay: HCS neurite outgrowth assay (High Content Screening with Primary Neurons); format: cell-based
# [2] = system: corticospinal tract (CST) axons; assay: Unilateral pyramidotomy model, in vivo axon growth (CST axon sprouting); settings: mice, cortical injection, 2 mM final concentration, 5 weeks after unilateral pyramidotomy, N=2
# Source text: B) Graph represents averages of sprouting axon index across two animals treated with indicated compounds. Error bars indicate range of data points. N=2 animals (mice).
# To assess the role of the compounds described herein in axon growth in vivo, the unilateral pyramidotomy model was employed, in which the pyramid in the ventral brainstem was severed unilaterally, rostral to the decussation of corticospinal tract (CST) axons. The animals then received bilateral cortical injections of a compound described herein (or DMSO) mixed 1:1 with AAV8-UbC-GFP or AAV8-UbC-TdTomato (5×10^13 GC/mL) for a final concentration of 2 mM (2 animals (mice) for each condition). […] Axon growth in the cervical spinal cord was assessed after 5 weeks. Cervical sections of the spinal cord were stained with antibodies against PKCγ (to assess completeness of lesion), and GFP (to amplify the signal from the virus). For analyses, GFP+ axons sprouting into the denervated gray matter were counted at 0, 500, 1000 μm lateral to the central canal, and normalized to the number of GFP+ fibers at the level of the brainstem (sprouting axon index).
# primary CNS neurons = assay: Neurite outgrowth in primary CNS neurons (FIG. 1, FIG. 2); format: cell-based; settings: FIG. 2, combination of both inhibitors
Compound,neurite growth length (% NTL) ([1]; 156 nM),neurite growth length (% NTL) ([1]; 312 nM),neurite growth length (% NTL) ([1]; 625 nM),neurite growth length (% NTL) ([1]; 1.25 μM),neurite growth length (% NTL) ([1]; 2.5 μM),neurite growth length (% NTL) ([1]; 5 μM),neurite growth length (% NTL) ([1]; 10 μM),neurite growth length (% NTL) ([1]; 20 μM),EC50 (Primary Neurons),CST axon sprouting (sprouting axon index) [2],EC50 (Primary Neurons; Primary neuron),"neurite outgrowth, ROCK inhibitor and S6K inhibitor combined (primary CNS neurons)",other results
"COc1ccc(O)c(C(=O)c2ccc(C(=O)N[C@@H]3CNC[C@H]3NC(=O)c3ccncc3)cc2)c1F [Example A16, N-[(3R,4R)-4-[4-(2-fluoro-6-hydroxy-3-methoxybenzoyl)benzamido]pyrrolidin-3-yl]pyridine-4-carboxamide]",117.55 % NTL,125.17 % NTL,144.99 % NTL,167.31 % NTL,228.24 % NTL,403.74 % NTL,573.73 % NTL,660.88 % NTL,5500 nM,nearly a two-fold increase in sprouting,,,"activity at 0.078 µM ([1]; Rattus norvegicus, Neuron, 48 h, 78 nM): 117%; CST axon sprouting (sprouting axon index) ([2]; listed as A-16): promotes CST axon sprouting in the spinal cord"
"O=C(N[C@@H]1CNC[C@H]1NC(=O)c1ccc(C(=O)c2cc(Br)ccc2O)cc1)c1ccncc1 [Example A88, N-((3R,4R)-4-(4-(5-bromo-2-hydroxybenzoyl)benzamido)pyrrolidin-3-yl)isonicotinamide]",,,,,,,,,,promotes CST axon sprouting in the spinal cord; also recorded: nearly a two-fold increase in sprouting,1160 nM,,
"COc1ccc(O)c(C(=O)c2ccc(C(=O)O[C@@H]3CCCNC[C@H]3NC(=O)c3ccncc3)cc2)c1F [Example A92, (3R,4R)-3-(isonicotinamido)azepan-4-yl 4-(2-fluoro-6-hydroxy-3-methoxybenzoyl)benzoate, reference compound]",,,,,,,,,,promotes CST axon sprouting in the spinal cord; also recorded: nearly a two-fold increase in sprouting,711 nM,,
Cc1cncc2cccc(S(=O)(=O)N3CCCNC[C@@H]3C)c12 [Example H-1152],,,,,,,,,,,,synergistically promotes neurite outgrowth,
CCc1cncnc1N1CCN(Cc2nc3ccc(C(F)(F)F)cc3[nH]2)CC1 [PF-4708761],,,,,,,,,,,,synergistically promotes neurite outgrowth,
"N[(3R,4R)-4-{4-[(2-fluoro-6-hydroxy-3- methoxyphenyl)methyl]benzamido}pyrrolidin- 3-yl]pyridine-4-carboxamide [Example A55]",77.96 % NTL,80.06 % NTL,76.79 % NTL,81.96 % NTL,90.13 % NTL,93.58 % NTL,98.77 % NTL,96.04 % NTL,4740 nM,,,,neurite growth length (% NTL) ([1]; 78 nM): 85.02 % NTL

# — US11926613B2, “Kinase inhibitors for the treatment of central and peripheral nervous system disorders” (UNIVERSITY OF MIAMI, priority 2017, dated 2024)
